Test results from ChEMBL document CHEMBL5500416, “Development of a Potent and Selective G2A (GPR132) Agonist” (J Med Chem, 2024).
pEC50: −log10 of the molar value.

Key:
[1] = biological target: T1, Probable G-protein coupled receptor 132 (Homo sapiens, UniProt Q9UNW8)
T1 sequence (Q9UNW8 whole entry): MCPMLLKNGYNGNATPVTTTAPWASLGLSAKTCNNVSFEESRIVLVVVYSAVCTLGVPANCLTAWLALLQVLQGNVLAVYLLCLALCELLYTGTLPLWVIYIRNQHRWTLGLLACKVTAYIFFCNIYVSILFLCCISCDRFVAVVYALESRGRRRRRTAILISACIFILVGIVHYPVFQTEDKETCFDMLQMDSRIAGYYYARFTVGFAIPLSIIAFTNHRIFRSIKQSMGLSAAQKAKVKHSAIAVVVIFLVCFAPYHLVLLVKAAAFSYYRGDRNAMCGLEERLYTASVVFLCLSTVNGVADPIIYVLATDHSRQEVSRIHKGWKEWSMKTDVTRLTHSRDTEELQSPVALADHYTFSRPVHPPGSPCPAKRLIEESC
Description: Agonist activity at human G2A expressed in CHO-K1 cells co-expressing human GNA11 assessed as accumulation of IP-1 incubated for 90 mins by HTRF based FRET assay

[2] = Clearance in male C57BL/6N mouse at 10 mg/kg, sc measured after 12 hrs by LC-MS analysis; format: ADME, organism-based; conditions: in vivo
[3] = Drug concentration in male C57BL/6N mouse plasma at 1 mg/kg, iv measured after 8 hrs by LC-MS analysis; format: ADME, organism-based
[4] = Drug concentration in male C57BL/6N mouse plasma at 10 mg/kg, sc measured after 12 hrs by LC-MS analysis; format: ADME, organism-based
[5] = AUC (0 to 8 hrs) in male C57BL/6N mouse at 1 mg/kg, iv measured after 8 hrs by LC-MS analysis; format: ADME, organism-based; conditions: in vivo
[6] = Cmax in male C57BL/6N mouse at 10 mg/kg, sc measured after 12 hrs by LC-MS analysis; format: ADME, organism-based; conditions: in vivo
[7] = Metabolic stability in Sprague-Dawley rat liver microsomes assessed as parent compound remaining measured after 60 mins in presence of NADPH regenerating system by HPLC analysis; format: ADME, Microsome; conditions: read-out: Stability
[8] = biological target: T1, Probable G-protein coupled receptor 132; remark: listed apart in the source
Description: Binding affinity to SmBit-tagged human G2A expressed in CHOK-1 cells co-expressing LgBit-betaarrestin2 incubated for 15 mins by NanoLuc betaarrestin2 recruitment assay

[9] = AUC (0 to 12 hrs) in male C57BL/6N mouse at 10 mg/kg, sc measured after 12 hrs by LC-MS analysis; format: ADME, organism-based; conditions: in vivo
[10] = Cytotoxicity against human HepG2 cells assessed as cell viability upto 100 uM incubated for 72 hrs by CellTiter-Glo assay relative to control; format: toxicity, cell-based; conditions: read-out: Activity
[11] = Metabolic stability in Sprague-Dawley rat liver microsomes assessed as intrinsic clearance measured after 60 mins in presence of NADPH regenerating system by HPLC analysis; format: ADME, Microsome; conditions: 1 h
[12] = Cmax in male C57BL/6N mouse at 1 mg/kg, iv measured after 8 hrs by LC-MS analysis; format: ADME, organism-based; conditions: in vivo
[13] = Tmax in male C57BL/6N mouse at 1 mg/kg, iv measured after 8 hrs by LC-MS analysis; format: ADME, organism-based; conditions: in vivo
[14] = Tmax in male C57BL/6N mouse at 10 mg/kg, sc measured after 12 hrs by LC-MS analysis; format: ADME, organism-based; conditions: in vivo
[15] = Aqueous solubility of compound in PBS at pH 7.4 measured after 24 hrs by microplate analysis; format: physicochemical; conditions: buffer, pH 7.4, 24 h

Structure (SMILES)	pEC50 [1]	also measured
CCCCC/C=C\C=C\C(O)CCCCCCCC(=O)O (racemic)	5.12	
O=C(NC(Cc1ccccc1Cl)C(=O)O)c1cccc(OCc2cccnc2)c1 (stereo unspecified)	4.87	
O=C(NC(Cc1ccccc1)C(=O)O)c1cccc(OCc2ccncc2)c1 (racemic)	5.54	
CC(c1ccccc1)C(NC(=O)c1cccc(OCc2cccnc2)c1)C(=O)O (stereo unspecified)	4.71	
O=C1C2=C(CCN(Cc3ccccc3)C2)N2CCN=C2N1Cc1ccc(C(F)(F)F)cc1	5.41	
C[C@H]1CC[C@@](NC(=O)c2cccc(OCc3cccnc3)c2)(C(=O)O)CC1	4.88	
O=C(NC(C(=O)O)c1cccnc1)c1cccc(OCc2cccnc2)c1 (stereo unspecified)	4.10	
CC(NC(=O)c1cccc(OCc2cccnc2)c1)(C(=O)O)c1ccccc1 (stereo unspecified)	5.21	
CCC(NC(=O)c1cccc(OCc2cccnc2)c1)C(=O)O (stereo unspecified)	4.56	
CCC[C@H](NC(=O)c1cccc(OCc2cccnc2)c1)C(=O)O	5.53	
O=C(N[C@H](Cc1ccccc1)C(=O)O)c1cccc(OCc2cccnc2)c1	6.09	CL/F [2]: 141 mL/min/kg; concentration at 8 h [3]: 2.4 ng/mL; concentration at 12 h [4]: 2.9 ng/mL; AUC(0-t) at 8 h [5]: 47.3 ng·h/mL; Cmax [6]: 755 ng/mL; remaining at 1 h [7]: 98%; pEC50 [8]: 5.11; AUC(0-t) at 12 h [9]: 591 ng·h/mL; viability at 72 h, up to 100 µM [10]: ≥ 90%; CLint [11]: 1.68 µL/min/mg; Cmax [12]: 45.3 ng/mL; Tmax [13]: 15 min; Tmax [14]: 30 min; solubility [15]: >= 3000 uM
O=C(NC(C(=O)O)C1CC1)c1cccc(OCc2cccnc2)c1 (stereo unspecified)	< 4.00	
O=C(NC(Cc1ccc(OC(F)(F)F)cc1)C(=O)O)c1cccc(OCc2cccnc2)c1 (racemic)	5.48	
O=C(N[C@@H](CCc1ccccc1)C(=O)O)c1cccc(OCc2cccnc2)c1	4.16	
O=C(N[C@H](CCc1ccccc1)C(=O)O)c1cccc(OCc2cccnc2)c1	4.92	
O=C(NC(Cc1ccccc1)C(=O)O)c1cccc(OCc2cccnc2)c1 (stereo unspecified)	5.76	viability at 72 h, up to 100 µM [10]: ≥ 90%

Structure (SMILES)	pEC50 [1]	also measured
COC[C@H](NC(=O)c1cccc(OCc2cccnc2)c1)C(=O)O	< 4.00	
CC(C)[C@H](NC(=O)c1cccc(OCc2cccnc2)c1)C(=O)O	5.13	
O=C(NC(Cc1ccc(F)cc1)C(=O)O)c1cccc(OCc2cccnc2)c1 (stereo unspecified)	5.71	
O=C(N[C@H](Cc1ccc(Cl)cc1)C(=O)O)c1cccc(OCc2cccnc2)c1	5.12	
O=C(N[C@H](Cc1ccc(C(F)(F)F)cc1)C(=O)O)c1cccc(OCc2cccnc2)c1	5.06	
CC(C)[C@@H](NC(=O)c1cccc(OCc2cccnc2)c1)C(=O)O	4.19	
O=C(NC(Cc1ccccc1)C(=O)O)c1ccc(OCc2cccnc2)cc1 (racemic)	4.42	
O=C(N[C@@H](Cc1ccccc1)C(=O)O)c1cccc(OCc2cccnc2)c1	4.51	
O=C(NC(Cc1ccccc1)C(=O)O)c1cccc(OCc2ccccc2)c1 (stereo unspecified)	5.12	
O=C(NC(Cc1ccccc1)C(=O)O)c1cccc(OCc2ccccn2)c1 (racemic)	4.92	
O=C(N[C@@H](CC1CCCCC1)C(=O)O)c1cccc(OCc2cccnc2)c1	4.91	
CCCC(NC(=O)c1cccc(OCc2cccnc2)c1)C(=O)O (stereo unspecified)	5.16	
O=C(N[C@@H](C(=O)O)c1ccccc1)c1cccc(OCc2cccnc2)c1	4.42	
CCC[C@@H](NC(=O)c1cccc(OCc2cccnc2)c1)C(=O)O	4.39	
O=C(NC(Cc1ccncc1)C(=O)O)c1cccc(OCc2cccnc2)c1 (stereo unspecified)	4.30	
